Test results as given in patent US4362718A, “Agent for curing peripheral circulation insufficiency” (Yamanouchi Pharmaceutical Co., Ltd., priority 1979, dated 1982).
Like-named read-outs stand apart in the source and are kept apart here.

What was measured:
red blood corpuscles [1] = assay: Fine opening passability of red blood corpuscles (nitrocellulose membrane filter, 3.0 μm); type: cell-based, human; details: 37° C., 30 minutes, 3.0 μm filter, 80 mmHg/cm^2
Experimental: (§1) (1) One part by volume of human blood was mixed with 1 part by volume of a preservative solution (acid-citrate-dextrose solution) and preserved at 4° C. Just before using, it was washed 4 times with about 8 times by volume of a saline solution (2,000 rotations/minute, for 3 minutes) and a 2% saline floating solution of red blood corpuscles was prepared.
(§2) (2) A solution prepared by dissolving α1 -acid glycoprotein or a comparative substance shown in FIG. 1 in a saline solution was mixed with the same amount of the saline floating solution of red blood corpuscles, and the mixture was moderately shaked for 30 minutes at 37° C. 1 ml of the mixture was taken out and filtered by means of a nitrocellulose membrane filter (produced by Saltrius Co., diameter: 13 mm, diameter of fine openings: 3.0 μm) at 37° C. with pressing under 80 mmHg/cm^2. 0.5 ml of the filtrate was taken out and subjected to light centrifugal separation (1,500 rotations/minute, for 2 minutes). To the precipitate was added 5 ml of deionized water to cause hemolysis at a low tonicity, and a ratio of red blood corpuscles passing through the filter was calculated from the absorbance (420 nm) thereof. Further, percent hemolysis caused during the operation was calculated from the absorbance of the supernatant fluid of the filtrate.

[2] = tested on: red blood corpuscles through fine blood vessels; assay: Passability of red blood corpuscles through vital fine blood vessels (exposed rabbit mesentery, reduced blood pressure); type: in vivo
Text: A rabbit was subjected to laparotomy under urethane anesthesia to expose the mesentery and the passability of the red blood corpuscles through fine blood vessels was observed by means of a stereomicroscope.

Rat = assay: Acute toxicity, rat; type: in vivo
Mouse = assay: Acute toxicity, mouse; type: in vivo
HeLaS3 = assay: Toxicity to cultivated cells, HeLaS3; type: cell-based
[3] = tested on: Human fetal lung fiber cell; assay: Toxicity to cultivated cells, human fetal lung fiber cell; type: cell-based
[4] = tested on: EB virus transform lymphoblast P3HR-1; assay: Toxicity to cultivated cells, P3HR-1; type: cell-based
red blood corpuscles [5] = tested on: red blood corpuscles
Experimental: as §1, §2

[6] = 100 μg-1 mg/kg, arterial blood pressure 40-60 mmHg/cm^2

Substance: α1 -acid glycoprotein: active ingredient of the present invention; substance known already, produced by the process described in Unexamined patent publication Sho 53-37187
- passage of red blood corpuscles through the filter (red blood corpuscles [1]; 0.05% solution, saline control did not pass at all): the red blood corpuscles passed through the filter with hardly causing hemolysis
- impilation of corpuscles and separation of the corpuscle component from the serum [2, 6]: impilation of corpuscles and separation of the corpuscle component from the serum were not observed
- movement of red blood corpuscles [2, 6]: the red blood corpuscles moved in the normal direction though the movement was slow
- passability of red blood corpuscles through fine blood vessels under reduced blood pressure ([2]; continuously into local dominating artery or into a vein, 100 μg-1 mg/kg, blood pressure reduced by blood-letting or pentobarbital): the passability of red blood corpuscles was good
- LD50 (Rat; intraperitoneally): > 1,000 mg/kg
- LD50 (Rat; intravenously): > 1,000 mg/kg
- LD50 (Rat; subcutaneously): > 1,000 mg/kg
- LD50 (Mouse; intraperitoneally): > 1,000 mg/kg
- LD50 (Mouse; intravenously): > 1,000 mg/kg
- LD50 (Mouse; subcutaneously): > 1,000 mg/kg
- Toxicity (50% Inhibition of propagation) (HeLaS3): > 100 µg/mL
- Toxicity (50% Inhibition of propagation) [3]: > 100 µg/mL
- Toxicity (50% Inhibition of propagation) [4]: > 100 µg/mL
- percent hemolysis in case of passing through fine openings (red blood corpuscles [5]; 0.05% solution, saline alone as high as 20%): 5%

Substance: dextran sulfate [reference compound]
- passage of red blood corpuscles through the filter (red blood corpuscles [1]; 0.1% solution, compared with α1 -acid glycoprotein): passage of the red blood corpuscles was observed too, but the effect was small as compared with the case of α1 -acid glycoprotein
- stagnation of the blood flow and stopping of the blood corpuscles ([2]; in case of using dextran sulfate, reduced blood pressure): such stagnation of the blood flow and stopping of the blood corpuscles were not observed
- percent hemolysis in case of passing through fine openings (red blood corpuscles [5]; human, red blood cells): 25 to 30%
